Assay [1] concerns HDF. Briefly: viable cell counting (Trypan blue) with adenylyl cyclase inhibitor and/or LPA. The assay is classed as cell-based, human. As to conditions: senescent cell culture; LPA plus adenylyl cyclase inhibitor (SQ22536 300 μM). The method, then: O and Y denote old and young cell, respectively.
Young or old HDF (passage 8-11) were treated with LPA (30 μM), dbcAMP (cAMP analog, 1 mM, Sigma), adenylyl cyclase inhibitor, SQ22536 (300 μM, Calbiochem) and their combinations for 30-60 min at 37° C. The cells treated were stained with Trypan blue (GiBco/BRL) for 10 min at 37° C. and only cells without blue color were then counted under hemacytometer.

The test system of assay [2] is HDF. In words: flow cytometry (FACS, propidium iodide) of cell cycle progression. The assay is classed as cell-based, human. Particulars: senescent cell. The procedure:
FIG. 21 represents the results of FACS analysis evaluating the effect of LPA on cell cycle progression in senescent cells in connection with the affection of cAMP control. Con denotes control group and ACI is adenylyl cyclase inhibitor.
In addition, the treated cells were analyzed using flow cytometry. The treated cells were harvested and treated with […] of 0.1% trypsin for 30 sec, after which centrifugation was performed at 4° C. for 10 min at 1000 rpm. Then, the cell concentration was adjusted to 1-3×10^6 cells/ml in sample buffer. The sample buffer was prepared in such a manner that 1 g glucose in 1 L PBS without Ca^2+ and Mg^2+ was filtered through a 0.22 μm filter. The solutions containing cells was centrifuged at 4° C. for 10 min at 1000 rpm and ice-cold 70% ethanol was added dropwise to pellet. The sample tube was capped, allowed to fix in the ethanol overnight at 4° C., vortexed briefly, and then centrifuged for 5 min at 3000 rpm. Thereafter, ethanol was discarded and PI (propidium iodide) staining solution (0.5 ml 20× propidium iodide stock solution (50 μg/ml final), 1000 kunits RNase A (100 U/ml final) and 10 ml sample buffer) was added into the sample tube. Finally, the sample was analyzed within 24 hr in a […] (FACS Calibur, Beckton-Dikinson).
For orientation: A flow cytometer gives signals particle by particle.

Assay [3] deals with human diploid fibroblasts. In words: growth factor-stimulated signaling events in human diploid fibroblasts. The assay is classed as cell-based. The procedure: Foreskin fibroblasts were isolated as described by Boyce and Ham (1983). Cells were cultured in Dulbecco's modified Eagle's medium containing 10% fetal bovine serum and antibiotics. The primary culture contained smaller and more closely packed cells during the early stage of the culture. Cells with less than 10 passage were often considered as presenescent cells. As the cells were passaged, they became larger and they have a slower growth rate at passage 10-20. Cells from over 27 passages were completely growth-arrested and developed characteristic appearance designated previously as replicative senescence (Yeo et al., 2000a and b). In order to confirm that cells were senescent, we either examined the activity of beta-galactosidase or stained with X-gal, a membrane permeable substrate of the enzyme, which produces a blue insoluble product inside of the cells. The number of cells stained with X-gal increased with age and most of cells from passage 27-28 were stained. Cultures of over 23-28 passages have also shown the cessation of cell growth and senescence-like morphological changes, but only 70-80% of cells were stained with X-gal. These were termed “near-senescent”. Although the near-senescent cultures were not completely homogeneous, we compared the changes in these cultures to those in presenescent cultures of passage 6-10. In order to determine the growth factor-stimulated signaling events, cells were grown for 1-2 days to 60-70% sub-confluency in the culture medium, and then serum-starved to become quiescent by incubating with serum free medium (SFM) for 2 days. The quiescent cells were treated with various agonists, as described in the figure legends. To label cells, radioactive chemicals were added during the incubation with SFM.
Primary human diploid fibroblasts, isolated from newborn foreskins, were used to study the mechanism of reduced response to growth factor stimulation with aging. These cells were maintained and passaged as described previously (Yeo et al., 2000a). […] Compared to their presenescent counterparts, the senescent and near-senescent cells were larger and grew to lower density, as has been observed in other cell systems. Here the present inventors report upon the differential changes in the signaling events evoked by platelet-derived growth factor (PDGF) and lysophosphatidic acid (LPA). PDGF elicits signaling events over a concentration range of 10-100 ng/ml, whereas LPA stimulates the hydrolysis of phospholipids, Ca^2+ mobilization, and actin polymerization over a concentration range of 0.1-10 μg/ml in human diploid fibroblasts. In order to compare their cellular responses, we treated presenescent and senescent (or near-senescent) cells with PDGF and LPA at a maximally responsive dose of 50 ng/ml and 1 μg/ml, respectively.

In assay [4] the test system is human diploid fibroblasts. In words: measurement of cytosolic free [Ca2+]i by confocal microscopy (fluo-3-AM). The assay is classed as cell-based. Particulars: PDGF 50 ng/ml, LPA 1 μg/ml. The method, then: FIG. 1 represents differential changes in growth factor-stimulated calcium release in senescent fibroblasts. Presenescent (passage 7: A and C) and senescent (passage 27: B and D) fibroblasts were grown on coverslips, serum-starved, and incubated with 4 μM fluo-3-AM in serum-free medium for 40 min. The stained cells were treated with […] of platelet-derived growth factor (A and B) or 1 μg/ml of lysophosphatidic acid (C and D) via a micro-perfusion system for the real-time measurement of signaling molecules, and laser scanning confocal microscopy. The scanned images were analyzed for changes in intracellular Ca^2+ at the single cell level and results expressed as relative fluorescence intensity (RFI).
[Ca^2+]i was measured using a laser scanning confocal microscope, as described by Junn et al. (2000). Quiescent fibroblasts grown on glass cover slips in a 6-well plate were stained with 4 μM of fluo-3-acetoxymethyl ester (fluo-3-AM) in phenol red-free medium without serum for 40 min and washed three times with the serum-free medium. Stained cells on each cover slip were mounted on a perfusion chamber (MPS-1000, Seoul Engineering, Korea), placed under the confocal laser scanning microscope (Carl Zeiss LSM 410), and scanned every 5 sec with a 488 nm excitation argon laser and a 515 nm long pass emission filter. Growth factors were added to the cells using an automatic pumping system (self-designed). All scanned images were analyzed for [Ca ^2+]i changes at the single cell level using “Time Series Program” for a real-time measurement of relative fluorescence intensity (RFI) which is installed in the Carl Zeiss LSM 410 confocal system.

Assay [5] relates to human diploid fibroblasts. Briefly: confocal microscopic measurement of actin polymerization (NBD-phallacidin). The assay is classed as cell-based. As to conditions: PDGF 50 ng/ml, LPA 1 μg/ml. The method, then:
FIG. 2 represents differential changes in growth factor-induced actin polymerization in senescent fibroblasts. […] The cells were fixed, permeabilized, and stained with NBD-phallacidin, then photographed.
F-actin was stained as described by Shin et al. (1999). Quiescent cells grown on glass cover slips in multi-well culture plates were treated with agonists for 30 min, and the cells were fixed with 3.7% paraformaldehyde in PBS for 30 min on ice. Following permeabilization with 0.2% Triton X-100 in PBS for 15 min on ice, the cells were stained with […] NBD-phallacidin in PBS for 30 min at RT. The stained cells were washed three times with PBS for 15 min and the cover slip was mounted on a slide glass with Gelvatol, which was prepared by mixing 100 ml of 23% polyvinyl alcohol in PBS with 50 ml glycerol. The cells were then observed under a confocal fluorescence microscope.

A further assay relates to phospholipase D (PLD). Briefly: phosphatidylbutanol formation as an indication of phospholipase D activity. The assay is classed as cell-based, human. As to conditions: passage 24 near-senescent cells vs presenescent; 0.5% 1-butanol, 20 min. The procedure:
Subconfluent presenescent (passage 8: Pa 8) and near-senescent (passage 24: Pa 24) cells were serum-starved and labeled with [^3H]myristic acid overnight. […] A representative experiment of three performed in duplicate is presented.
Quiescent cells were labeled overnight with [^3H]myristic acid (1 μCi/ml) and then washed with PBS. Phosphatidylbutanol formation was measured as described by Yeo et al. (1994). Cells were preincubated with 0.5% (v/v) 1-butanol for 15 min and then treated with agonists for 20 min in the presence of 0.5% 1-butanol. Total lipids were extracted and separated by thin layer chromatography. The band of phosphatidylbutanol was scraped off the plates and its radioactivity was counted in a liquid scintillation cocktail.

Assay [6] deals with human diploid fibroblasts. Briefly: DNA synthesis, [3H]thymidine incorporation. As to conditions: for increase in [3H]thymidine incorporation: 50-100 ng/ml PDGF. The assay is classed as cell-based. The method, then: FIG. 5 represents reduction of growth factor-induced thymidine incorporation in near-senescent fibroblasts. […] The amount of [^3H]thymidine incorporated into DNA over 4 hrs was measured as described. The data represents an average of 3 counts in cpm. A representative experiment of the three is presented in A. Fold increase over the untreated control was calculated and plotted in B.
FIG. 18 represents changes in LPA-induced thymidine incorporation and cell proliferation in near-senescent fibroblasts versus presenescent fibroblasts. Subconfluent presenescent (passage 8, Pa 8) and near-senescent (passage 24, Pa 24) fibroblasts were serum-starved for 2 days and treated with LPA (1-70 μg/ml) for 16 hrs. The amount of [^3H]thymidine incorporated into DNA over 4 hrs was measured as described. The data represents an average of 3 counts in cpm in each independent experiments. A representative experiment of the three is presented in A. Converted fold increase over the untreated control was calculated and plotted in B.
Quiescent cells were labeled with [^3H]thymidine (0.5 μCi/ml) for 4 hrs and the […] radioactive thymidine was removed by washing with PBS. DNA was precipitated with 10% TCA and lysed in 0.5N NaOH. The radioactivity in neutralized lysates was counted in a liquid scintillation cocktail.

The test system of the next assay is Phospholipase C (PLC). As to conditions: near-senescent cells (passage 23) vs presenescent (passage 6); PDGF 50 ng/ml, LPA 1 μg/ml, 20 min, 20 mM LiCl.
The next assay deals with cellular cAMP. Briefly: measurement of cyclic AMP accumulation (cAMP binding assay). The assay is classed as cell-based, human. Particulars: near-senescent HDF (passage 26); 30 μg/ml LPA; 10 μM inhibitor. The method, then: FIG. 9 represents LPA-induced alteration of cellular cAMP content in presenescent and near-senescent fibroblasts. Subconfluent presenescent (passage 8, Pa 8) and near-senescent (passage 24, Pa 24) fibroblasts were serum-starved for 2 days and treated with LPA: A, 1-70 μg/ml LPA for 30 min; B, 30 μg/ml LPA for the indicated times. The level of cAMP in the acid extracts was measured by cAMP binding assay. The data represents an average of triplicate experiments.
Subconfluent near-senescent (passage 26, Pa 26) fibroblasts were serum-starved for 2 days and treated with 30 μg/ml LPA for the indicated times in the absence or presence of 10 μM PKC inhibitor bisindolylmaleiamide (bIM). The level of cAMP in the acid extracts was measured by cAMP binding assay. The data represents an average of triplicate experiments.
Cells grown on a 12 well-plate were serum-starved by incubating with SFM for 2 days. After the cells were equilibrated in the fresh SFM medium for 1 hour, they were treated with LPA as described in the figure. The reaction was terminated by removing the medium and by adding 2.5 M perchloric acid. The acid extract was stored at −20° C. until use. The acid extract was neutralized with 4.2 M KOH and the cAMP content was determined by competitive binding with [^3H]cAMP to the cAMP binding protein, RIα of cAMP-dependent protein kinase, as described by Jang and Juhnn (2001). After the extraction, cells were lyzed with 0.1 N NaOH and analyzed for protein content using the Bradford protein assay reagent. The cAMP content was normalized to the amount of acid-insoluble protein.

Setting [7] is: near-senescent cells (passage 24).

The source of these data is US20060099568A1, “Signals and molecular species involved in senescence” (priority 2002, published 2006).

With `Nc1ncnc2c1ncn2C1CCCO1` (stereo not shown) [adenylyl cyclase inhibitor], the viable cell number result in the assay with HDF [1] is reported as “dramatically increased”. Also, the “number of cells in S phase” value was “dramatically increased” with HDF [2] (adenylyl cyclase inhibitor alone) and “more enhanced” in the assay on HDF [2] (co-treatment of adenylyl cyclase inhibitor with LPA).

Regarding PDGF, the “concentration range over which signaling events are elicited” value in assay [3] (human diploid fibroblasts) was in the range of 10 to 100 ng/mL. This compound also had a maximally responsive dose in assay [3] (presenescent and senescent (or near-senescent) cells) of 50 ng/mL. Moreover, in [4] (presenescent fibroblasts (passage 7)), the “cytosolic Ca2+ levels” value was “rapid increase”. In [4] (senescent cells (passage 27)), the “Ca2+ response in senescent cells relative to presenescent” value was “greatly attenuated”. Besides, in assay [5] (presenescent fibroblasts (passage 10)), the “actin polymerization (stress fibers)” value was “enhanced the formation of stress fibers”. The “agonist-induced actin polymerization in senescent cells” value in assay [5] (senescent cells (passage 27)) is listed as “almost completely blocked”. In the assay on phospholipase D (PLD), the “reduction of PLD activity” value is reported as 80%. In addition, the “agonist-induced DNA synthesis ([3H]thymidine incorporation) in near-senescent cells vs presenescent” value in assay [6] (setting [7]) was “greatly reduced”. The figures for the “increase in [3H]thymidine incorporation” value in assay [6] (setting [7]) and in assay [6] (presenescent cells (passage 8)) were 1.3 fold and 7-8 fold, respectively. The “concentration range of very strong agonism for [3H]thymidine incorporation” value in [6] (presenescent fibroblasts) lay within 10 to 100 ng/mL. Further, the “agonist-stimulated inositol phosphates (IPs) production” value in the assay on Phospholipase C (PLC) is “dramatically reduced”.

On to “bisindolylmaleiamide [bis-indolylmaleiamide]”, for which the “cAMP content in LPA-stimulated cells in presence of PKC inhibitor” value in the assay with cellular cAMP was “inhibition of cAMP accumulation”.
